Assay results: ChEMBL document CHEMBL1144376, “Novel approach to pro-drugs of lactones: water soluble imidate and ortho-ester derivatives of a furanone-based COX-2 selective inhibitor” (Bioorg Med Chem Lett, 2005)

How the values were obtained:
[1] = Plasma level of compound 2 measured at 30 min in sprague-dawley rat after 2 mg/kg intravenous administration of compound; format: ADME, organism-based; design: dose 2 mg/kg, route intravenous; details: in vivo, 0.5 h, read-out: Plasma level
[2] = Plasma level measured at 30 min in sprague-dawley rat upon intravenous administration; format: ADME; details: read-out: Plasma level
[3] = Plasma level measured at 30 min in sprague-dawley rat upon intravenous administration [dosed in PEG-400 solution]; format: ADME, organism-based; details: read-out: Plasma level
[4] = molecular target: Prostaglandin G/H synthase 1 (Homo sapiens, UniProt P23219); assay: Inhibitory concentration against prostaglandin G/H synthase 1 of human whole blood
Prostaglandin G/H synthase 1, sequence (P23219 whole entry): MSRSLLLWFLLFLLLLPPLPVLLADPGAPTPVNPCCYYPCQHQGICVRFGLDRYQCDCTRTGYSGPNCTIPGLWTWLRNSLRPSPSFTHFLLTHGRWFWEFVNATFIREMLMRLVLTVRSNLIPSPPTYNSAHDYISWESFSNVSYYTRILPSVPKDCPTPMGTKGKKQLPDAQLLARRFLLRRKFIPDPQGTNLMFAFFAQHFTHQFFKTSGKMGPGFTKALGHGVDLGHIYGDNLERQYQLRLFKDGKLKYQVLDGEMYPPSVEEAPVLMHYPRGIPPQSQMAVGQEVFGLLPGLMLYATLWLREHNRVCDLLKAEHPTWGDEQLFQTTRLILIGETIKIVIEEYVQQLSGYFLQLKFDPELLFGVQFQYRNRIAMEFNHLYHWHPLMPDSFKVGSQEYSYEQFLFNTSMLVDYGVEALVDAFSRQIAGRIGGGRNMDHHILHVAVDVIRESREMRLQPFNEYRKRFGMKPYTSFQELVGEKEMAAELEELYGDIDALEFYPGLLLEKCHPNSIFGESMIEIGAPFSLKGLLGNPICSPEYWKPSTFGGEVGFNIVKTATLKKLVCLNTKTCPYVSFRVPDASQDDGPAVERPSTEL

Structure (SMILES) | concentration [1] | also measured
CC[C@]1(C)OC2(OCC(C3OC(=O)C(O)=C3O)O2)C(OC(C)C)=C1c1ccc(S(C)(=O)=O)cc1 (stereo partly specified) | 0.1 µM | 
CC[C@]1(C)OC2(OCC(COP(=O)([O-])OCC[N+](C)(C)C)O2)C(OC(C)C)=C1c1ccc(S(C)(=O)=O)cc1 (stereo partly specified) | 0.2 µM | concentration at 0.5 h [2]: 0.2 µM
CC[C@]1(C)OC2(OCC(CO)O2)C(OC(C)C)=C1c1ccc(S(C)(=O)=O)cc1 (stereo partly specified) | 2.8 µM | concentration at 0.5 h [3]: 1.4 µM
CC[C@]1(C)O/C(=N\OCC(=O)O)C(OC(C)C)=C1c1ccc(S(C)(=O)=O)cc1 | < 0.1 µM | 
CC[C@]1(C)OC(=O)C(OC(C)C)=C1c1ccc(S(C)(=O)=O)cc1 |  | IC50 [4]: > 86 µM
CC[C@]1(C)O/C(=N\[C@@H](CO)C(=O)O)C(OC(C)C)=C1c1ccc(S(C)(=O)=O)cc1 | < 0.1 µM | 
CC1(O)OC(=O)C(c2ccc(Cl)cc2)=C1c1ccc(S(C)(=O)=O)cc1 (stereo unspecified) |  | IC50 [4]: > 86 µM
CC[C@]1(C)OC2(OCC(COC(=O)CCC(=O)[O-])O2)C(OC(C)C)=C1c1ccc(S(C)(=O)=O)cc1.[Na+] (stereo partly specified) | 0.4 µM | concentration at 0.5 h [2]: < 0.1 µM
